In patent US20100204247A1, “N-SUBSTITUTED OXINDOLINE DERIVATIVES AS CALCIUM CHANNEL BLOCKERS” (priority 2007, published 2010) one finds IC50 data, which are given here for two molecules.

The assay addresses T1, N-type calcium channel (Human Cav2.2 channels) (Homo sapiens, UniProt Q00975).
T1 construct: expressed in transfected cells
The assay can be described thus: N-type calcium channel (Cav2.2) antagonist assays: fluorescent potassium depolarization assay, IonWorks and PatchXpress/manual patch clamp electrophysiology. The class given is cell-based. The conditions noted are these: in the aforementioned assays (Assay Examples 1-3); the specific assay is not stated; read-out: IC50, antagonizing the N-type calcium channel. The source says:
Fluorescent Assay for Cav2.2 Channels using Potassium Depolarization to Initiate Channel Opening
Human Cav2.2 channels were stably expressed in KEK293 cells along with alpha2-delta and beta subunits of voltage-gated calcium channels. An inwardly rectifying potassium channel (Kir2.3) was also expressed in these cells to allow more precise control of the cell membrane potential by extracellular potassium concentration. At low bath potassium concentration, the membrane potential is relatively negative, and is depolarized as the bath potassium concentration is raised. In this way, the bath potassium concentration can be used to regulate the voltage-dependent conformations of the channels. […]
Calcium influx through Cav2.2 channels is determined using a calcium-sensitive fluorescent dye in combination with a fluorescent plate reader. Fluorescent changes were measured with either a VIPR (Aurora Instruments) or FLIPR (Molecular Devices) plate reader.
• 1. […] Read cell plate on VIPR instrument, Excitation=480 nm, Emission=535 nm • 9. With VIPR continuously reading, add 0.1 mL (96-well plate) or 0.03 mL (384-well plate) of Depolarization Buffer, which is 2× the final assay concentration, to the cell plate. […]
Block of N-type calcium channels is evaluated utilizing the IonWorks HT 384 well automated patch clamp electrophysiology device. […]

T1 sequence (Q00975 whole entry): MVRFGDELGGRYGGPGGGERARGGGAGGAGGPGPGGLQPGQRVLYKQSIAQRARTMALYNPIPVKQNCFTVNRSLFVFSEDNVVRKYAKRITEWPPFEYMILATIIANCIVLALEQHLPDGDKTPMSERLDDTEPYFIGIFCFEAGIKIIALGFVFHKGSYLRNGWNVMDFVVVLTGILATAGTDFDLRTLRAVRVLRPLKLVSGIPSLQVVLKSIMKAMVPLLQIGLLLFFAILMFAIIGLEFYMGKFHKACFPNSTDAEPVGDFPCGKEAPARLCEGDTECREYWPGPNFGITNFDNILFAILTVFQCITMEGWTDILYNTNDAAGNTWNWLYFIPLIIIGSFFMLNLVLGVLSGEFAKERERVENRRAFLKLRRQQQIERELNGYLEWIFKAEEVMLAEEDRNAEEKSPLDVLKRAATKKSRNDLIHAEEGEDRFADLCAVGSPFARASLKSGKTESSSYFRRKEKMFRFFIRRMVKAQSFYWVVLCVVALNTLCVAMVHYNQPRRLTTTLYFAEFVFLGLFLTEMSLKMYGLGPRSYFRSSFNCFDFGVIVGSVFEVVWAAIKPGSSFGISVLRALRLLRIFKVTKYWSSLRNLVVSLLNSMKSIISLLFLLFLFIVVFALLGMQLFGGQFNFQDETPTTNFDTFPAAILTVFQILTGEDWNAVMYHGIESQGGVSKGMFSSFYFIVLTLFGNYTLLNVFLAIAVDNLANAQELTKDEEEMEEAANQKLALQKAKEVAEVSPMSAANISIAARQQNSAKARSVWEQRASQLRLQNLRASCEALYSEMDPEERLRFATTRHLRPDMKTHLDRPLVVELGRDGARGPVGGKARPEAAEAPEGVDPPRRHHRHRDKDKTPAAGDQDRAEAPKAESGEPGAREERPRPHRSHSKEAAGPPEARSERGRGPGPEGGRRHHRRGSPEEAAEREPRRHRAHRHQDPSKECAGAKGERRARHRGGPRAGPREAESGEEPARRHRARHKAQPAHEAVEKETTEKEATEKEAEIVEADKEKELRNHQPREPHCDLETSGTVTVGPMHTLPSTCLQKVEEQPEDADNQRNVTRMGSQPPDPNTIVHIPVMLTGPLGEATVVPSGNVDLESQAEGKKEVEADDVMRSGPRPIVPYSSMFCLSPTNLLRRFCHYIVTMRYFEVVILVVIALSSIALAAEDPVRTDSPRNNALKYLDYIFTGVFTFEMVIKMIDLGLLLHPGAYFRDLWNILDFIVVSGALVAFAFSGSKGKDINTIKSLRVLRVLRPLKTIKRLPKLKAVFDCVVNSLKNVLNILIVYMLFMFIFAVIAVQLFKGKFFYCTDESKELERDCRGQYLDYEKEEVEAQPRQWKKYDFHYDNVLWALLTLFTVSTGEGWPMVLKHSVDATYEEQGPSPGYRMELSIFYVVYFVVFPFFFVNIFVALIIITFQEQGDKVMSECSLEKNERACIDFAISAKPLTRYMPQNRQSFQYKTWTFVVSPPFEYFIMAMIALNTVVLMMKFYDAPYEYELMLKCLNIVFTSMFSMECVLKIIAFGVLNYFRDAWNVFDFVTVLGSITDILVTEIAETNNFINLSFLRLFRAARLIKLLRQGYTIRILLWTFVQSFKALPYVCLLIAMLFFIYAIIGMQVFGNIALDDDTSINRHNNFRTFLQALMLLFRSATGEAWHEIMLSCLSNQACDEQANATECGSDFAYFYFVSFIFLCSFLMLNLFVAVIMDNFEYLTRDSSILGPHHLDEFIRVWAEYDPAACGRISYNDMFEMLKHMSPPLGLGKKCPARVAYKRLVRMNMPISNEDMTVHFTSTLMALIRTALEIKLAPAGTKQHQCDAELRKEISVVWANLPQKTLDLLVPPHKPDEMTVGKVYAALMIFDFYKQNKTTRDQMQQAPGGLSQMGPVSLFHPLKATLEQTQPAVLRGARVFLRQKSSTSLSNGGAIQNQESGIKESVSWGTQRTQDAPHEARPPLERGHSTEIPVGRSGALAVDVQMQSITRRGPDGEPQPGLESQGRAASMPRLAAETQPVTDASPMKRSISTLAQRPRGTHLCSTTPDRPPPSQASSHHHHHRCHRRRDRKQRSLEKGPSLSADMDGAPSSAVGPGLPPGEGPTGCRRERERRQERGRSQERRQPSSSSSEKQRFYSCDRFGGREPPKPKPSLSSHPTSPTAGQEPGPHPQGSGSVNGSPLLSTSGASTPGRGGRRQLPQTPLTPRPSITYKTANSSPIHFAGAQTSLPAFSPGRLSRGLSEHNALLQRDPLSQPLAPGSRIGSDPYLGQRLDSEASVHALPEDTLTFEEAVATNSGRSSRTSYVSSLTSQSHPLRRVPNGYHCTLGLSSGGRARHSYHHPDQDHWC

`CC1(Cc2cc(F)cc(F)c2)C(=O)Nc2ccc(-c3ccc(F)cc3)cc21` (centres unmarked) [Example 12, 3-(3,5-difluorobenzyl)-5-(4-fluorophenyl)-3-methyl-1,3-dihydro-2H-indol-2-one]: the IC50 – broadly, the concentration needed to halve the response being measured – was 590 nM. The same measure for `CC1(Cc2cncnc2)C(=O)Nc2ccc(-c3cccc(OCC(F)(F)F)c3)cc21` (centres unmarked) [Example 15, 3-methyl-3-(pyrimidin-5-ylmethyl)-5-[3-(2,2,2-trifluoroethoxy)phenyl]-1,3-dihydro-2H-indol-2-one]: 140 nM.
